According to patent US20090136566A1, “THERAPEUTIC TRITERPENOIDS” (Regents of the University of Minnesota, priority 2006, published 2009):
“Also recorded” adds a separate entry of the source.

How the values were obtained:
[1] = system: P19 stem cells; assay: Sulforhodamine B cell proliferation/survival assay, P19 stem cells; format: cell-based, mouse; details: for % Control (quantity of surviving cells as percentage of DMSO-only control): P19 stem cells, 20 μg/ml, 48 h exposure; for inhibition of P19 cell growth (in words): single dose of 20 μg/ml, 48 hours
Experimental: FIG. 2 is a graph showing the results of dose-response studies comparing the effectiveness of extracts from four species of birch (B. papyrifera, B. kenaica, B. neoalaskana, and B. pendula) with betulinic acid (BetA) and betulin 3-caffeate (Bet3C). Concentrations of from 2.5 to 20 μg/ml were added to cultures of P19 stem cells for 48 h, and the numbers of surviving cells measured using sulforhodamine B assays.
(§1) Cell Proliferation Measurements: Sulforhodamine B assays (Skehan, P. et al. (1990). J. Natl. Cancer Inst. 82:1107-1112.) were conducted to measure the effects of compounds and extractives of interest on the proliferation of a number of different cell lines. Cell lines used include mouse P19 and human NT2-D1 stem cells, mouse K1735-M2 melanoma cells, human LNCaP and PC-3 prostate cancer cells, and human MCF-7 breast cancer cells. Other cell lines include normal human fibroblast BJ cells, human Caov-3 ovarian cancer cells, human U87 brain glioma cells, human HL-60 acute promyelocytic leukemia cells, human MOLT-4 acute lymphoblastic leukemia cells, human U937 histiocytic lymphoma cells, human MDA-MB-231 breast cancer cells, C2BBe1 cells (a clone of the human colorectal cell line Caco-2), human K562 chronic myeloid leukemia cells, human WM32-11 primary melanoma cells with radial growth phase-like phenotype (early primary melanoma), and human WM793 melanoma cells with vertical growth phase-like phenotype. Cells were seeded at a concentration of 2.5×10^4 cells/ml in 24-well plates, and allowed to recover for 2 days prior to drug addition. Test compounds were prepared in most instances as stock solutions in dimethylsulfoxide (DMSO). Compounds were then added to multiwell plates at final concentrations of […]. Control wells received an equivalent amount of vehicle (DMSO) only. After 1-3 days of incubation, the culture medium was decanted from each plate, and the cells fixed with cold (−10° C.) absolute methanol containing 1% acetic acid for at least 30 minutes. Subsequently, the methanol was decanted, and the plate air-dried. Sulforhodamine B (0.5% in 1% acetic acid) was added to each well, and the plate incubated at 35° C. for 1 hour. Plates were rinsed with 1% acetic acid, air-dried, and the bound dye eluted with 1 ml of 10 mM Tris buffer, pH 10. The absorbance was measured in a spectrophotometer at 540 nm; the amount of dye released is proportional to the number of cells present in the dish, and is a reliable indicator of cell proliferation.
A single dose of 20 μg/ml of either extract, pure compound, or a mixture of compounds, was added to cultures of P19 stem cells, and the growth of the cells measured after 48 hours of treatment (FIG. 1).
(§2) Stock solutions of compounds and extracts were diluted to 2 mg/ml in dimethylsulfoxide (DMSO), and subsequently added to samples at a final concentration of 20 μg/ml (10 μl/ml of a 2 mg/ml stock solution); controls received an equivalent amount of DMSO only (10 μl/ml). After 48 h, samples were fixed with methanol-acetic acid, and the quantity of surviving cells determined by sulforhodamine B staining methods (discussed above). The quantity of surviving cells is expressed as a percentage of the control (DMSO-only) cultures, which was set to 100%. […] Extracts and betulinic acid induce a relatively modest increase in the numbers of dead cells present the cultures (about 10-40%).

[2] = system: K1735-M2 melanoma cells; assay: Sulforhodamine B cell proliferation assay, K1735-M2 melanoma cells; format: cell-based, mouse; details: 2.5-10 mg/ml, 48 h
Experimental: (§3) FIG. 3 is a bar graph showing a comparison of the effects of betulin 3-caffeate on other types of malignant cancer cell lines. P19 stem cells, K1735-M2 melanoma cells and MCF-7 breast cancer cells were treated with […] betulinic acid or betulin-3-caffeate for 48 h and cell quantity determined by sulforhodamine B assays.
as §1, with “After 1-3 days of incubation, the culture medium was decanted from each plate, and the cells fixed with cold (−10° C.) absolute methanol containing 1% acetic acid for at least 30 minutes. Subsequently, the methanol was decanted, and the plate air-dried. Sulforhodamine B (0.5% in 1% acetic acid) was added to each well, and the plate incubated at 35° C. for 1 hour. Plates were rinsed with 1% acetic acid, air-dried, and the bound dye eluted with 1 ml of 10 mM Tris buffer, pH 10.” left out

[3] = system: MCF-7 breast cancer cells; assay: Sulforhodamine B cell proliferation assay, MCF-7 breast cancer cells; format: cell-based, human; details: 2.5-10 mg/ml, 48 h
Experimental: as §3
as §1, with “After 1-3 days of incubation, the culture medium was decanted from each plate, and the cells fixed with cold (−10° C.) absolute methanol containing 1% acetic acid for at least 30 minutes. Subsequently, the methanol was decanted, and the plate air-dried. Sulforhodamine B (0.5% in 1% acetic acid) was added to each well, and the plate incubated at 35° C. for 1 hour. Plates were rinsed with 1% acetic acid, air-dried, and the bound dye eluted with 1 ml of 10 mM Tris buffer, pH 10.” left out

[4] = system: P19 cells; assay: P19 cell death by propidium iodide labeling with flow cytometry; format: cell-based, mouse; details: 48 hours
Text: FIG. 4 is a bar graph showing measurements of P19 cell death induced by extracts, betulinic acid (BetA) and betulin 3-caffeate (Bet3C). Because the reduction in cell numbers detected by sulforhodamine B assays could result from either an inhibition of cell proliferation or an induction of cell death (or a combination of both), propidium iodide labeling was used in conjunction with flow cytometry to detect dead and dying cells with compromised plasma membranes.
as §2

[5] = Light absorption analysis by UV-VIS spectrophotometer; format: physicochemical; details: for Light absorption range (λ, nm): UV-VIS spectrophotometer
Text: Sunscreens block the cutaneous absorption of UV radiation at 280-315 nm.

Compound | % Control (quantity of surviving cells as percentage of DMSO-only control) [1] [%] | inhibition of P19 cell growth (in words) [1] | Light absorption range (λ, nm) [5] | ε (molar extinction coefficient) ([5]; at λmax 220) | ε (molar extinction coefficient) ([5]; at λmax 245) | ε (molar extinction coefficient) ([5]; at λmax 305) | ε (molar extinction coefficient) ([5]; at λmax 325) | other results
O=C(O)CCCCCCCCCCCCCCCCCCCCC(=O)O [Sample 9, Docosandioic acid] | 61.5 | – | – | – | – | – | – | –
O=C(O)CCCCCCCCCCCCCCCCCCCCCO [Sample 12, 22-hydroxydocosanoic acid] | 51.4 | – | – | – | – | – | – | –
O=C(O)CCCCCCC/C=C\CCCCCCCCO [Sample 13, Cis-18-hydroxyoctadec-9-enoic acid] | 65.9 | – | – | – | – | – | – | –
C=C(C)[C@@H]1CC[C@]2(C(=O)O)CC[C@]3(C)C(CC[C@@H]4[C@@]5(C)CC[C@H](O)C(C)(C)C5CC[C@]43C)C12 (stereo partly drawn) [Sample 14, 3(β)-hydroxy-20(29)-lupaene-28-oic acid, reference compound] | 1.3 | – | – | – | – | – | – | inhibition of P19 cell growth (in words) ([1]; listed as betulinic acid): even more profoundly inhibited cell growth; also recorded: among the most active compounds in inhibiting cell proliferation; inhibition of M2 melanoma cell growth (in words) [2]: significantly inhibited; inhibition of MCF-7 breast cancer cell growth (in words) [3]: do not appear to be as sensitive; increase in the quantity of dead cells present in the cultures [4]: 10-40%
CC1(C)CC[C@]2(C(=O)O)CC[C@]3(C)C(=CC[C@@H]4[C@@]5(C)CC[C@H](O)C(C)(C)[C@@H]5CC[C@]43C)[C@@H]2C1 [Sample 15, Oleanolic acid] | 22.3 | less effective | – | – | – | – | – | –
C=C(C)[C@@H]1CC[C@]2(C)CC[C@]3(C)[C@H](CC[C@@H]4[C@@]5(C)CC[C@H](O)C(C)(C)[C@@H]5CC[C@]43C)[C@@H]12 [Sample 16, Lupeol] | 58.9 | less effective | – | – | – | – | – | –
C=C(C)[C@@H]1CC[C@]2(CO)CC[C@]3(C)C(CC[C@@H]4[C@@]5(C)CC[C@H](O)C(C)(C)C5CC[C@]43C)C12 (stereo partly drawn) [Sample 17, 3β,28-dihydroxy-lup-20(29)-ene] | 14.8 | less effective | – | – | – | – | – | –
C=C(C)[C@@H]1CC[C@]2(COC(=O)/C=C/c3ccc(O)c(O)c3)CC[C@]3(C)[C@H](CC[C@@H]4[C@@]5(C)CC[C@H](OC(=O)/C=C/c6ccc(O)c(O)c6)C(C)(C)[C@@H]5CC[C@]43C)[C@@H]12 [betulin-3,28-dicaffeate] | – | – | 200-350 nm | 13978 | 10018 | 13341 | 15375 | –
C=C(C)[C@@H]1CC[C@]2(CO)CC[C@]3(C)[C@H](CC[C@@H]4[C@@]5(C)CC[C@H](OC(=O)/C=C/c6ccc(O)c(O)c6)C(C)(C)[C@@H]5CC[C@]43C)[C@@H]12 [betulin-3-caffeate, (3β)-3-Caffeyloxylup-20(29)-en-28-ol] | 1.2 | even more profoundly inhibited cell growth | 210-360 nm | 2280 | 1795 | 2575 | 2865 | inhibition of P19 stem cell growth in dose response studies (in words) ([1]; 2.5 to 20 μg/ml, 48 h): more effectively inhibits P19 stem cell growth; potency in inhibiting growth of P19 cells relative to betulinic acid ([1]; concentrations of 5-10 μg/ml, 48 h): 4 to 5 fold; inhibition of P19 cell growth (in words) ([1]; listed as betulin 3-caffeate): among the most active compounds in inhibiting cell proliferation; inhibition of M2 melanoma cell growth (in words) [2]: significantly inhibited; effectiveness in inhibiting cell growth compared with betulinic acid (in words) ([2]; K1735-M2 melanoma cells): more effective in inhibiting cell growth than betulinic acid; inhibition of MCF-7 breast cancer cell growth (in words) [3]: do not appear to be as sensitive; effectiveness in inhibiting cell growth compared with betulinic acid (in words) ([3]; MCF-7 cells): more effective in inhibiting cell growth than betulinic acid; increase in the quantity of dead cells present in the cultures [4]: ~200%
C=C(C)[C@@H]1CC[C@]2(COC(=O)/C=C/c3ccc(O)c(O)c3)CC[C@]3(C)[C@H](CC[C@@H]4[C@@]5(C)CC[C@H](O)C(C)(C)[C@@H]5CC[C@]43C)[C@@H]12 [betulin-28-caffeate] | – | – | 210-360 nm | 1300 | 875 | 1190 | 1380 | –
Hydroxyoctadecanoic acid [Sample 10] | 82.6 | – | – | – | – | – | – | –
Treo-hydroxyoctadecanoic acid [Sample 11] | 67.3 | – | – | – | – | – | – | –
betulin 3,28,30-tricaffeate | – | – | 210-360 nm | 1230 | 882 | 1174 | 1353 | –
